Reference: patent publication US11174282B2, “Aminosteroid derivatives and process for producing same” (UNIVERSITÉ LAVAL, priority 2016, dated 2021)
Entries after “also recorded” stand apart in the source; their conditions may differ. Like-named read-outs stand apart in the source and are kept apart here.

Key:
[1] = tested on: OVCAR-3 cells (ovarian cancer); assay: Cell proliferation assay (MTS), OVCAR-3; assay type: cell-based; conditions: for IC50: read-out: IC50 (μM) Ovarian cancer OVCAR-3; for antiproliferative activity relative to RM-133, OVCAR-3: fold of RM-133 activity (>1 = more active)
Procedure: (§1) The different aminosteroids were dissolved in methanol (50 mM).

[2] = tested on: LNCaP (prostate cancer) cells; assay: Cell proliferation assay (MTS), LNCaP; assay type: cell-based; conditions: Homo sapiens, 72 h, 3 days treatment, MTS, read-out: IC50 (μM) Prostate cancer LNCaP
Procedure: as §1

[3] = tested on: PC-3 (prostate cancer) cells; assay: Cell proliferation assay (MTS), PC-3; assay type: cell-based; conditions: 72 h; 3 days treatment, MTS; read-out: IC50 (μM) Prostate cancer PC-3
Procedure: as §1

[4] = tested on: HL-60 (acute promyelocytic leukemia) cells; assay: Cell proliferation assay (MTS), HL-60; assay type: cell-based; conditions: for IC50: read-out: IC50 (μM) HL-60 (leukemia); for antiproliferative activity relative to RM-133, HL-60: fold of RM-133 activity (>1 = more active)
Procedure: as §1

[5] = tested on: T-47D breast cancer cell line; assay: Cell proliferation assay (MTS), T-47D; assay type: cell-based; conditions: Homo sapiens, T47D, 72 h; 3 days treatment, MTS
Procedure: as §1

[6] = tested on: renal proximal tubule epithelial cells (RPTEC); assay: Toxicity on normal cells (MTS), RPTEC; assay type: cell-based, human
Procedure: as §1

[7] = tested on: primary ovary normal cells; assay: cells; assay type: cell-based, human; conditions: for Selectivity Index Ovary: IC50 normal cells/IC50 cancer cells (primary ovary / OVCAR-3)
Procedure: as §1

[8] = human, 1 h, 10 μM, pH 7.4
Procedure: (§2) Assays were performed at 37° C. for 1 h, with or without 10 mM NADPH in the presence of 40 μg of human liver microsome from Corning (Melrose, Mass., USA) and 10 μM of aminosteroid substrate in a final 100 μL volume of 50 mM Tris buffer (pH 7.4) supplemented with 10 mM MgCl2. Assays were ended by adding 100 μL of MeOH followed by centrifugation at 13,000 g for 10 min to obtain a pellet of proteins. The supernatant of 2 assays was pooled and submitted to HPLC-MS analysis (Shimadzu LCMS-2020 APCI, Alltima HP C18 (250 mm×4.6 mm, 5 μm) column, MeOH:H2O gradient). Remaining substrate (expressed in %) was calculated by dividing the area under the curve of the substrate for the assays without NADPH by the area under the curve of the substrate for the assays with NADPH and multiplied by 100. Values represent the average of 2 independent experiments.

[9] = tested on: MCF-7 breast cancer cells; assay: Cell proliferation assay (MTS), MCF-7; assay type: cell-based, human; conditions: Homo sapiens, MCF7, 72 h, 3 days treatment
Procedure: as §1

[10] = tested on: LAPC-4 (prostate cancer) cells; assay: Cell proliferation assay (MTS), LAPC-4; assay type: cell-based; conditions: read-out: IC50 (μM) Prostate cancer LAPC-4
Procedure: as §1

[11] = tested on: primary pancreas, primary ovary and renal proximal tubule epithelial cells (RPTEC); assay: Toxicity on the normal cell types tested; conditions: higher concentration tested 50 μM
Procedure: Human primary epithelial pancreas and ovary cells were obtained from Cedarlane (Chicago, Ill., USA) and were cultured in the manufacturer recommended medium. Human renal proximal tubule epithelial cells (RPTEC) were obtained from Lonza (Mississauga, ON, Canada) and were maintained in DMEM-F12 supplemented as previously reported [4]. The cell lines were all maintained under a 5% CO2 humidified atmosphere at 37° C. and the culture medium was changed every 2 to 3 days and the cells were split once a week to maintain cell propagation.
The cell proliferation assay was performed using 3-(4,5-dimethylthiazol-2-yl)-5-(3-carboxymethoxyphenyl)2-(4-sulfophenyl)-2H-tetrazolium (MTS) (Cell Titer 96 Aqueous, Promega, Nepean, ON, Canada) as previously described [3, 4, 5]. Briefly, cells were plated in triplicate in 96-well plates (1×10^4 cells/well) in appropriate culture medium (total of 90 μL). Before each treatment, the cells were incubated at 37° C. in a 5% CO2 humidified atmosphere for 24 h. The different aminosteroids were dissolved in methanol (50 mM). The stock solutions were diluted at multiple concentrations with culture media in order to obtain the desired final concentration followed by the addition of 10 μL to each well, and the mixture incubated for 3 days. Following treatment, MTS (10 μL) was added to each well and the mixture was incubated for 4 h. […] Selectivity was calculated by dividing the IC50 obtained for a specific primary cell by the IC50 for the related cancer cell line.

[12] = tested on: Human pancreas cancer cells (PANC-1); assay: Cell proliferation assay (MTS), PANC-1; assay type: cell-based; conditions: for IC50: read-out: IC50 (μM) Pancreatic cancer PANC-1; for antiproliferative activity relative to RM-133, PANC-1: fold of RM-133 activity (>1 = more active)
Procedure: as §1

[13] = Metabolic stability assay, human liver microsomes; conditions: 1 h; for increased metabolic stability relative to RM-133: human hepatic microsomes
Procedure: as §2

[14] = tested on: primary pancreas normal cells; assay: Toxicity on normal cells (MTS), primary pancreas; assay type: cell-based, human; conditions: for IC50: human normal cells; for Selectivity Index Pancreas: IC50 normal cells/IC50 cancer cells (primary pancreas / PANC-1)
Procedure: as §1

[15] = tested on: PANC-1, BxPC-3, Hs766, OVCAR-3, Caov3, SKOV3, MCF-7, T-47D and LAPC-4 cell lines; assay: Cytotoxic activity screening at 5 and 1 μM on cancer cell lines; conditions: independently of the cancer cell line tested, result in words
Procedure: The cell proliferation assay was performed using 3-(4,5-dimethylthiazol-2-yl)-5-(3-carboxymethoxyphenyl)2-(4-sulfophenyl)-2H-tetrazolium (MTS) (Cell Titer 96 Aqueous, Promega, Nepean, ON, Canada) as previously described [3, 4, 5]. Briefly, cells were plated in triplicate in 96-well plates (1×10^4 cells/well) in appropriate culture medium (total of 90 μL). Before each treatment, the cells were incubated at 37° C. in a 5% CO2 humidified atmosphere for 24 h. The different aminosteroids were dissolved in methanol (50 mM). The stock solutions were diluted at multiple concentrations with culture media in order to obtain the desired final concentration followed by the addition of 10 μL to each well, and the mixture incubated for 3 days. Following treatment, MTS (10 μL) was added to each well and the mixture was incubated for 4 h.

[16] = Homo sapiens, OVCAR-3, 72 h, 3 days treatment, MTS
[17] = Homo sapiens, HL-60, 72 h, 3 days treatment, MTS
[18] = normal (kidney) cells, read-out: IC50 (μM) RPTEC (normal cells)
[19] = human normal cells, read-out: IC50 (μM) Primary Ovary (normal cells)

Compound `C#C[C@@]1(O)CC[C@H]2[C@@H]3CCc4cc(OC(C)=O)c(N5CCN(C(=O)[C@@H]6CCCN6C(=O)c6ccc7ccccc7n6)CC5)cc4[C@H]3CC[C@@]21C` [Compound 3, (17β)-17-ethynyl-17-hydroxy-2-{4-[1-(quinolin-2-ylcarbonyl)-L-prolyl]piperazin-1-yl}estra-1,3,5(10)-trien-3-yl acetate] has an IC50 ([1]; 3 days treatment, MTS) of 3.4 µM, an IC50 [1, 16] of 3.9 ± 0.4 µM and an IC50 [2] of 0.8 ± 0.3 µM. It also gave an IC50 [3] of 1.4 ± 0.3 µM, an IC50 [4, 17] of 4.3 µM and an IC50 [5] of 0.4 ± 0.2 µM. The IC50 ([6]; Homo sapiens, RPTEC, relative toxicity on human normal cells, read-out: IC50 (μM) Normal Cells Kidney) was ≥ 50 µM, the IC50 ([7]; relative toxicity on human normal cells, read-out: IC50 (μM) Normal Cells Ovary) was ≥ 50 µM and the “phenolic metabolite RM-581-OH (stability of potential prodrugs to hydrolysis)” value [8] was “no trace of the phenolic metabolite RM-581-OH could be observed”. For the same compound, the IC50 [9] was 1.4 ± 0.1 µM, the IC50 ([10]; 3 days treatment, MTS) was 0.6 µM and the IC50 ([10]; Homo sapiens, LAPC4, 72 h, 3 days treatment, MTS) was 0.5 ± 0.4 µM. For the same compound, the “toxicity on the normal cell types tested” value [11] was “did not trigger any loss of cell viability even at concentrations as high as 50 μM”.
In the case of `C#C[C@]1(OC(C)=O)CC[C@H]2[C@@H]3CC[C@H]4C[C@H](OC(C)=O)[C@@H](N5CCN(C(=O)[C@@H]6CCCN6C(=O)c6ccc7ccccc7n6)CC5)C[C@]4(C)[C@H]3CC[C@@]21C` [5 (3,17-diester), (2β,3α,5α,17α)-2-{4-[1-(quinolin-2-ylcarbonyl)-L-prolyl]piperazin-1-yl}pregn-20-yne-3,17-diyl diacetate], the IC50 ([12]; 3 days treatment, MTS) is reported as 25 µM, the “antiproliferative activity relative to RM-133, PANC-1” value [12] is reported as 0.3 fold and the IC50 ([1]; 3 days treatment, MTS) is reported as 13.1 µM. The “antiproliferative activity relative to RM-133, OVCAR-3” value [1] was 0.4 fold, the IC50 ([4]; 3 days treatment, MTS) was 6.44 µM and the “antiproliferative activity relative to RM-133, HL-60” value [4] was “activity similar to RM-133”. The “increased metabolic stability relative to RM-133” value [13] was 3.5 fold, the IC50 [14] was 16.6 µM and the IC50 [6, 18] was 45.5 µM. The IC50 [7, 19] was 25.4 µM and the “toxicity on the normal cell types tested” value [11] was “increased toxicity relative to the mono-ester derivative 4”.
Compound `C#C[C@@]1(O)CC[C@H]2[C@@H]3CCc4cc(OC(=O)N(C)C)c(N5CCN(C(=O)[C@@H]6CCCN6C(=O)c6ccc7ccccc7n6)CC5)cc4[C@H]3CC[C@@]21C` [Compound 1, (17β)-17-ethynyl-17-hydroxy-2-{4-[1-(quinolin-2-ylcarbonyl)-L-prolyl]piperazin-1-yl}estra-1,3,5(10)-trien-3-yl dimethylcarbamate] has an IC50 ([12]; Homo sapiens, PANC-1, 72 h) of 9.6 µM, an IC50 ([1]; Homo sapiens, OVCAR-3, 72 h) of 6.4 µM and an IC50 ([4]; Homo sapiens, HL-60, 72 h) of 4.3 µM. For the same compound, the “cytotoxic activity in screening (cell survival)” value (from here on “cytotoxic activity in screening”) [15] was “only slight differences in their respective levels of activity”, the IC50 ([6]; Homo sapiens, RPTEC, read-out: IC50 (μM) Normal Cells Kidney) was ≥ 50 µM and the IC50 ([7]; Homo sapiens, read-out: IC50 (μM) Normal Cells Ovary) was ≥ 50 µM. It also gave an IC50 ([10]; Homo sapiens, LAPC4, 72 h) of 1.3 µM.
For `C#C[C@@]1(O)CC[C@H]2[C@@H]3CCc4cc(C(C)O)c(N5CCN(C(=O)[C@@H]6CCCN6C(=O)c6ccc7ccccc7n6)CC5)cc4[C@H]3CC[C@@]21C` (stereo partly drawn) [Compound 18, {4-[(17β)-17-ethynyl-17-hydroxy-3-(1-hydroxyethyl)estra-1,35(10)-trien-2-yl]piperazin-1-yl}[(2S)-1-(quinolin-2-ylcarbonyl)pyrrolidin-2-yl]methanone], the “metabolic stability (% of remaining compound)” value ([13]; 10 μM, 40 μg human liver microsomes, result in words) was “slightly lower values” and the “cytotoxic activity in screening” value [15] was “only slight differences in their respective levels of activity”.
With `C#C[C@@]1(O)CC[C@H]2[C@@H]3CC[C@H]4C[C@H](OC(C)=O)[C@H](N5CCN(C(=O)[C@@H]6CCCN6C(=O)c6ccc7ccccc7n6)CC5)C[C@]4(C)[C@H]3CC[C@@]21C` [4 (3-ester), (2α,3α,5α,17α)-17-hydroxy-2-{4-[1-(quinolin-2-ylcarbonyl)-L-prolyl]piperazin-1-yl}pregn-20-yn-3-yl acetate] the IC50 ([12]; 3 days treatment, MTS) was 6.24 µM, the “antiproliferative activity relative to RM-133, PANC-1” value [12] was 1.1 fold and the IC50 ([1]; 3 days treatment, MTS) was 3.83 µM. For the same compound, the “antiproliferative activity relative to RM-133, OVCAR-3” value [1] was 1.4 fold, the IC50 ([4]; 3 days treatment, MTS) was 6.44 µM and the “antiproliferative activity relative to RM-133, HL-60” value [4] was 1.1 fold. For the same compound, the “increased metabolic stability relative to RM-133” value [13] was 3.1 fold, the “Selectivity Index Pancreas” value [14] was 4.8 and the IC50 [14] was 30.1 µM. For the same compound, the IC50 [6, 18] was 32.1 µM, the “Selectivity Index Ovary” value [7] was 11.0 and the IC50 [7, 19] was 42 µM. The “toxicity on the normal cell types tested” value [11] was “very low toxicity”.
In the case of `C#C[C@@]1(O)CC[C@H]2[C@@H]3CCc4cc(OC(=O)N(CC)CC)c(N5CCN(C(=O)[C@@H]6CCCN6C(=O)c6ccc7ccccc7n6)CC5)cc4[C@H]3CC[C@@]21C` [Compound 2, (17β)-17-ethynyl-17-hydroxy-2-{4-[1-(quinolin-2-ylcarbonyl)-L-prolyl]piperazin-1-yl}estra-1,3,5(10)-trien-3-yl diethylcarbamate], the “cytotoxic activity in screening” value [15] is reported as “marked weaker cytotoxic activity; also recorded: significant losses of activity”.
For `C#C[C@@]1(O)CC[C@H]2[C@@H]3CC[C@H]4C[C@H](OC(=O)N(C)C)[C@@H](N5CCN(C(=O)[C@@H]6CCCN6C(=O)c6ccc7ccccc7n6)CC5)C[C@]4(C)[C@H]3CC[C@@]21C` [3 (3-carbamate), (2β,3α,5α,17α)-17-hydroxy-2-{4-[1-(quinolin-2-ylcarbonyl)-L-prolyl]piperazin-1-yl}pregn-20-yn-3-yl dimethylcarbamate], the IC50 ([12]; Homo sapiens, PANC-1, 72 h, 3 days treatment, MTS) was 9.99 µM, the “antiproliferative activity relative to RM-133, PANC-1” value [12] was 0.7 fold and the IC50 [1, 16] was 20 µM. For the same compound, the “antiproliferative activity relative to RM-133, OVCAR-3” value [1] was 0.3 fold, the IC50 [4, 17] was 7.95 µM and the “antiproliferative activity relative to RM-133, HL-60” value [4] was 0.9 fold. The “Selectivity Index Pancreas” value [14] was >5.0, the IC50 [14] was > 50 µM and the IC50 ([6]; Homo sapiens, RPTEC, normal (kidney) cells, read-out: IC50 (μM) RPTEC (normal cells)) was 24.2 µM. The “Selectivity Index Ovary” value [7] was >2.5, the IC50 [7, 19] was > 50 µM and the “increased metabolic stability relative to RM-133” value ([8]; microsomes) was 5.9 fold. The “toxicity on the normal cell types tested” value [11] was “very low toxicity; also recorded: no cytotoxicity was observed”.
